Results from publication PMC5861127, “3-pyridyl inhibitors with novel activity against Trypanosoma cruzi reveal in vitro profiles can aid prediction of putative cytochrome P450 inhibition” (Scientific Reports, 2018).
Where “and” joins values, the source holds several entries; their conditions need not be identical. Equal values may be shown once. Read-outs that look alike come from different tables or passages of the source.

Assays:
T. cruzi epimastigotes = experiment: 120 hour T. cruzi epimastigote assay (PrestoBlue); assay type: cell-based; details: Trypanosoma cruzi
Description: Additions were made with a Multidrop dispenser and compounds were added directly following parasite addition. Plates were incubated for 112 hours before the addition 10 µL of PrestoBlue® viability reagent (Thermo Fisher, USA). […] The positive control was NFX at a final concentration of 14.20 µM and 0.433% DMSO as a negative control.

T. cruzi amastigotes [1] = experiment: T. cruzi image-based assay (48 hour, intracellular amastigotes in 3T3 host cells); assay type: cell-based, Trypanosoma cruzi; details: for Emax: 48 h; for IC50: intracellular amastigotes in 3T3 cells, retested from DMSO stocks (CF from solid sample, temporal experiments)
Description: The assay was performed as previously described. […] One wash was undertaken by using a Multidrop plate dispenser and two washes with a Bravo liquid handling device (Agilent Technologies, USA). Five microlitres of compound were added to plates and incubated for 48 hours. Cells were then fixed and stained with Hoechst (Life Technologies, USA) and HCS CellMaskTM Green (Life Technologies, USA) and image acquisition was performed an OperaTM High Content Screening System (PerkinElmer, USA) at 20 times magnification. […] The maximum activity achievable (Emax) of compounds was determined by taking (or as close to, if concentrations in the Emax were limited) the percentage activity at the mid concentration within the plateau of activity in the concentration response curve (see Supplemental Fig. 1, example NFX). […] Final assay concentrations of compounds ranged from 4.03 μM to 4.03 × 10^-3 μM. […] This was only undertaken for the amastigote assay. Dilutions were prepared with a multichannel pipette ([…], Thermo Fisher Scientific, USA) in 384-well polypropylene plates (Corning, NY, USA). […] Compound IC50 values in the TcCYP51 in vitro assay were calculated in GraFit (Erithacus software) by non-linear slope analysis. All data are presented as mean ± standard deviation. The significance of % clearance of parasites at compound Emax concentrations was calculated in Prism 5.0, using an unpaired student's t-test.

T. cruzi amastigotes [2] = experiment: 24 hour image-based assay; assay type: cell-based; details: Trypanosoma cruzi; for IC50: n of 2, read-out: IC50 value, 24 hours incubation; for Emax: plateau/Emax concentrations, read-out: % activity at the Emax, 24 hours incubation
Description: Compounds were added to assay plates as described for the 48 hour assay, although incubation time was decreased to 24 hours. […] Two experimental replicates were performed.

HEK293 cells = experiment: HEK293 assay (resazurin); assay type: cell-based, human; details: 120 hours; HEK293 / epimastigote IC50; NA = SI cannot be determined, tested to 79.4 µM
Description: […] […] Plates were incubated for 24 hours before the addition of compounds. […] The positive control was 32.5 μM puromycin and the negative control was 0.433% DMSO, slightly different to the T. cruzi assay due to the change in volume, whilst utilising the same stock control plate. […] […] […] This was only undertaken for the amastigote assay. Dilutions were prepared with a multichannel pipette ([…], Thermo Fisher Scientific, USA) in 384-well polypropylene plates (Corning, NY, USA).

3T3 host cells = experiment: 3T3 host cell activity in the T. cruzi image-based assay; set-up: species or system mouse; details: for CC50: Mus musculus, NIH3T3, 48 hours, no activity up to top concentration, read-out: IC50 value against 3T3 cells used for SI; for SI to 3T3: ratio 3T3 host cell / parasite IC50, 48 hours
Description: To calculate compound activity, 12.0 µM NFX was used as a positive control and 0.366% DMSO was used as a negative control. To determine the activity against the host cell, 30.0 µM of puromycin was used as a positive control. The percentage normalised activity was determined using the equation outlined in our previous publication[19] and the reproducibility of the assay was determined using the Z’-factor[20].
The assay was performed as previously described. Briefly, 3T3 cells were seeded at a concentration of 1 × 10^3 cells in 50 µL per well into collagen I coated 384-well plates (PerkinElmer, USA). Following 24 hours incubation at 37 °C and 5% CO2, 10 µL of parasites were added to wells at a multiplicity of infection (MOI) of 5:1 (parasites: host cells) with a Multidrop™ dispenser (Thermo Fisher, USA). Following 24 hours incubation, wells were washed with PBS (containing Mg^2+ and Ca^2+) to remove uninfected parasites. One wash was undertaken by using a Multidrop plate dispenser and two washes with a Bravo liquid handling device (Agilent Technologies, USA). Five microlitres of compound were added to plates and incubated for 48 hours. Cells were then fixed and stained with Hoechst (Life Technologies, USA) and HCS CellMask™ Green (Life Technologies, USA) and image acquisition was performed an Opera™ High Content Screening System (PerkinElmer, USA) at 20 times magnification. The positive control was 12.0 µM NFX and the negative control was 0.366% DMSO.

T. cruzi amastigotes [3] = experiment: Wash-off assay to assess parasite survival following compound removal; assay type: cell-based; details: Trypanosoma cruzi, 48 hours incubation, additional 72 hours without compound, read-out: percentage activity at the Emax, wash-off assay
Description: The T. cruzi assay 48 hour assay was performed. Following, plates were washed 5 times with PBS (containing Mg^2+ and Ca^2+) on a Bravo liquid handler to remove compound pressure. Plates were incubated for an additional 72 hours and wells were washed 5 times before fluorescent labels were added. Plates were imaged on an Opera confocal-based high-content system with 7 fields per well acquired, at 20 times magnification. […] Four experimental replicates were undertaken.

T. cruzi amastigotes [4] = experiment: 96 hour image-based assay; assay type: cell-based, Trypanosoma cruzi; details: for Emax: Trypanosoma cruzi
Description: The assay format was the same as the 48 hour assay, although plates were incubated for 96 hours. […] Two extra wash steps were included to remove as many extracellular parasites as possible to reduce impact on determination of intracellular parasites. […] Two experimental replicates were undertaken.

recombinant TcCYP51 = recombinant TcCYP51 (Trypanosoma cruzi, UniProt Q7Z1V1); assay type: biochemical
Sequence of recombinant TcCYP51 (Q7Z1V1 whole entry): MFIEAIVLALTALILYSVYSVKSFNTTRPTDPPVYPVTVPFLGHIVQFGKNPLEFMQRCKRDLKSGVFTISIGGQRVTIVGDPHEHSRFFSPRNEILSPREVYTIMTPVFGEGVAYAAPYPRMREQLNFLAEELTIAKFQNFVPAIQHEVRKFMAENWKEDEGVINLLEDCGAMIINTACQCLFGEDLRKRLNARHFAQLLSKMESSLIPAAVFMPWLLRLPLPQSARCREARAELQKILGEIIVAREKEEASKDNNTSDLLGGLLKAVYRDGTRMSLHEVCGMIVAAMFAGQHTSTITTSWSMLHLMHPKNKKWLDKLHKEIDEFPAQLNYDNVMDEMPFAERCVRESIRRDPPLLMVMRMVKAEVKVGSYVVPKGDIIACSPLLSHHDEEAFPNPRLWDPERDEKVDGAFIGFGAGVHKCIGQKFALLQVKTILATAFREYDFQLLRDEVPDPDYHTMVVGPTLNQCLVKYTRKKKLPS
Description: The activity of compounds against TcCYP51 was determined at the University of Dundee as outlined previously. This assay utilises the fluorogenic probe benzyloxymethyloxycyanocoumarin (BOMCC), activated by TcCYP51. […] Preliminarily testing of MMV001239 was performed using this assay, with 1 replicate concentration response curve generated to establish whether it was a putative TcCYP51 inhibitor.
Compound IC50 values in the T. cruzi and HEK293 cell-based assays were determined using Prism 5.0 (GraphPad software), derived by a sigmoidal concentration response (variable slope) analysis. Compound IC50 values in the TcCYP51 in vitro assay were calculated in GraFit (Erithacus software) by non-linear slope analysis. All data are presented as mean ± standard deviation. The significance of % clearance of parasites at compound Emax concentrations was calculated in Prism 5.0, using an unpaired student’s t-test.

[5] = DMSO stocks (CF from solid sample), relative to nifurtimox control
[6] = Trypanosoma cruzi, DMSO stocks (CF from solid sample), relative to nifurtimox control, read-out: % activity (Emax)
[7] = Trypanosoma cruzi, NIH3T3, 48 h
[8] = difference 96 hours minus 48 hours

Row | SMILES | IC50 (T. cruzi epimastigotes) [nM] | % activity (Emax) (T. cruzi amastigotes [1]; [5]) [%] | Emax (T. cruzi amastigotes [1]; [6]) [%] | IC50 (T. cruzi amastigotes [1]; [7]) [nM] | Emax (T. cruzi amastigotes [2]) [%] | SI to HEK293 cells (HEK293 cells) | CC50 (3T3 host cells) [nM] | SI to 3T3 (3T3 host cells) | Emax (T. cruzi amastigotes [3]) [%] | other results
1 | O=C(Cn1ccnc1[N+](=O)[O-])NCc1ccccc1 [BZ, benznidazole] | 5780 ± 477 | 99.5 ± 2.12 | 100 | 3560 ± 2340 | 100 | >26.1 | > 127000 | >35.7 | 100 | IC50 (T. cruzi amastigotes [2]): 7560 ± 2370 nM; increase in activity at the Emax from 48 to 96 hours incubation (T. cruzi amastigotes [4]; [8]): no difference
2 | CCc1ccc(NC(=O)N(Cc2cccnc2)Cc2ccccc2Cl)cc1 [Compound 1, 1-(2-Chlorobenzyl)-3-(4-ethylphenyl)-1-(3-pyridinylmethyl)urea] | – | – | 84.5 ± 6.36 | 3480 ± 622 | – | – | > 18300 | >5.26 | – | –
3 | CCOC(=O)C(=O)NCC(c1cccnc1)N1CCN(c2ccccc2)CC1 (centres unmarked) [Compound 2] | – | 76.5 ± 3.54 | – | – | – | – | – | >8.43 | – | IC50 (T. cruzi amastigotes [1]): 2170 ± 499 nM; IC50 (recombinant TcCYP51; BOMCC probe, read-out: IC50 value against recombinant TcCYP51): 562 ± 130 nM
4 | CC(=O)N1CCC(N(Cc2cccnc2)C(=O)Nc2ccc(Cl)cc2)CC1 [Compound 3, 1-(1-Acetyl-4-piperidinyl)-3-(4-chlorophenyl)-1-(3-pyridinylmethyl)urea] | – | – | 70.5 ± 0.707 | 1290 ± 368 | – | – | > 18300 | >14.2 | – | –
5 | CCOc1ccc(NC(=O)N(Cc2ccc(C)cc2)Cc2cccnc2)cc1 [Compound 4, 3-(4-Ethoxyphenyl)-1-(4-methylbenzyl)-1-(3-pyridinylmethyl)urea] | – | – | 76 ± 1.41 | 1400 ± 79.9 | – | – | > 18300 | >13.1 | – | –
6 | Cc1ccc(CN(Cc2cccnc2)C(=O)Nc2ccc(Cl)c(Cl)c2)cc1 [Compound 5, 3-(3,4-Dichlorophenyl)-1-(4-methylbenzyl)-1-(3-pyridinylmethyl)urea] | – | – | 88 ± 9.9 | 1800 ± 3.54 | – | – | > 18300 | >10.0 | – | IC50 (T. cruzi amastigotes [1]): 1820 ± 3.54 nM
7 | COc1ccc2sc(N(Cc3cccnc3)C(=O)c3ccc(C#N)cc3)nc2c1 [MMV001239] | – | – | – | – | – | – | – | – | – | percentage activity at the Emax, 48 hours incubation (temporal experiments, Fig. 3) (T. cruzi amastigotes [1]; n of 4): 85 ± 6.4% and 84.8%; IC50 (recombinant TcCYP51; single concentration response curve, read-out: IC50 value against recombinant TcCYP51, preliminary): 46 nM
8 | CC1CS(=O)(=O)CCN1/N=C/c1ccc([N+](=O)[O-])o1 (centres unmarked) [NFX, nifurtimox] | 1110 ± 131 | 102 ± 1.41 | 100 | 709 ± 161 | 100 | >136 | > 127000 | >179 | 100 | IC50 (T. cruzi amastigotes [2]): 1200 ± 21.3 nM; increase in activity at the Emax from 48 to 96 hours incubation (T. cruzi amastigotes [4]; [8]): no difference
9 | CC[C@@H]([C@H](C)O)n1ncn(-c2ccc(N3CCN(c4ccc(OC[C@@H]5CO[C@@](Cn6cncn6)(c6ccc(F)cc6F)C5)cc4)CC3)cc2)c1=O [POSA, posaconazole] | – | – | 70 ± 8.49 | – | < 50 | – | 1000 | – | 94 | Emax (T. cruzi amastigotes [1]; Trypanosoma cruzi, n of 4, read-out: percentage activity at the Emax, 48 hours incubation (temporal experiments, Fig. 3)): 75.3%; Emax (T. cruzi amastigotes [4]; 96 hours, n of 2, read-out: reduction in infected cells at the Emax, 96 hours exposure): 96.5%; Emax (T. cruzi amastigotes [4]; difference 96 hours minus 48 hours, read-out: increase in activity at the Emax from 48 to 96 hours incubation): 21.3%
10 | COc1ccc(C[C@H](N)C(=O)N[C@H]2[C@@H](O)[C@H](n3cnc4c(N(C)C)ncnc43)O[C@@H]2CO)cc1 [PURO, puromycin] | 566 ± 141 | – | – | 2010 ± 329 | – | 0.386 | – | 1.36 | – | –
